Organism: Rattus norvegicus
Experiment: DrugMatrix - Regimen: Daily Repeat
Format: toxicity, organism-based, Sprague-Dawley
Set-up: regimen Daily Repeat, gender Male, age 6-8 weeks
Details: in vivo, po, route oral GAVAGE, […]; for ABSOLUTE BASOPHIL / ABSOLUTE EOSINOPHIL / ABSOLUTE LYMPHOCYTE / ABSOLUTE MONOCYTE / ABSOLUTE SEGMENTED NEUTROPHIL / BASOPHIL / EOSINOPHIL / ERYTHROCYTE COUNT / HEMATOCRIT / HEMOGLOBIN / LEUKOCYTE COUNT / LYMPHOCYTE / MEAN CORPUSCULAR HEMOGLOBIN / MEAN CORPUSCULAR HEMOGLOBIN CONCENTRATION / MEAN CORPUSCULAR VOLUME / MONOCYTE / NEUTROPHIL / NUCLEATED RED BLOOD CELLS / PLATELET COUNT: tissue Blood; for ALANINE AMINOTRANSFERASE / ALKALINE PHOSPHATASE / ASPARTATE AMINOTRANSFERASE / BLOOD UREA NITROGEN / CARBON DIOXIDE / CHLORIDE / CHOLESTEROL / CREATINE PHOSPHOKINASE / CREATININE / GLUCOSE / LACTATE DEHYDROGENASE / LIPASE / PHOSPHORUS / POTASSIUM / SODIUM / TOTAL BILIRUBIN / TOTAL PROTEIN / URIC ACID: tissue Plasma
[1] = 22 mg/kg, 120 h, dose level High, time 5 day
[2] = 72 h, dose 2.5 mg/Kg, dose level Low, time 3 day
[3] = 120 h, dose 2.5 mg/Kg, dose level Low, time 5 day

## OCCN1CCN(CCCN2c3ccccc3Sc3ccc(C(F)(F)F)cc32)CC1 [FLUPHENAZINE]
[1]
  ABSOLUTE BASOPHIL: 0 CELLS/uL
  ABSOLUTE EOSINOPHIL: 112 CELLS/uL
  ABSOLUTE LYMPHOCYTE: 12846 CELLS/uL
  ABSOLUTE MONOCYTE: 29.33 CELLS/uL
  ABSOLUTE SEGMENTED NEUTROPHIL: 379.33 CELLS/uL
  BASOPHIL: 0%
  EOSINOPHIL: 1.33%
  ERYTHROCYTE COUNT: 6.02 x10E6/uL
  HEMATOCRIT: 36.97%
  HEMOGLOBIN: 14.2 G/DL
  LEUKOCYTE COUNT: 13.37 x10E3/uL
  LYMPHOCYTE: 95%
  MEAN CORPUSCULAR HEMOGLOBIN: 23.6 pg
  MEAN CORPUSCULAR HEMOGLOBIN CONCENTRATION: 38.43 G/DL
  MEAN CORPUSCULAR VOLUME: 61.37 fL
  MONOCYTE: 0.33%
  NEUTROPHIL: 3.33%
  NUCLEATED RED BLOOD CELLS: 0 /100WBC
  PLATELET COUNT: 1170.67 x10E3/uL
  ALANINE AMINOTRANSFERASE: 39.33 u/L
  ALKALINE PHOSPHATASE: 322.67 u/L
  ASPARTATE AMINOTRANSFERASE: 67.67 u/L
  BLOOD UREA NITROGEN: 15.67 mg/dL
  CARBON DIOXIDE: 26.67 mmol/L
  CHLORIDE: 101.33 MEQ/L
  CHOLESTEROL: 61.33 mg/dL
  CREATINE PHOSPHOKINASE: 190.33 u/L
  CREATININE: 0.13 mg/dL
  GLUCOSE: 198.67 mg/dL
  LACTATE DEHYDROGENASE: 80.67 u/L
  LIPASE: 9.67 u/L
  PHOSPHORUS: 9.4 mg/dL
  POTASSIUM: 5.22 MEQ/L
  SODIUM: 144.73 MEQ/L
  TOTAL BILIRUBIN: 0.2 mg/dL
  TOTAL PROTEIN: 6.13 G/DL
  URIC ACID: 0.77 mg/dL
[2]
  ABSOLUTE BASOPHIL: 0 CELLS/uL
  ABSOLUTE EOSINOPHIL: 0 CELLS/uL
  ABSOLUTE LYMPHOCYTE: 6619.33 CELLS/uL
  ABSOLUTE MONOCYTE: 22 CELLS/uL
  ABSOLUTE SEGMENTED NEUTROPHIL: 525.33 CELLS/uL
  BASOPHIL: 0%
  EOSINOPHIL: 0%
  ERYTHROCYTE COUNT: 5.21 x10E6/uL
  HEMATOCRIT: 33.8%
  HEMOGLOBIN: 13.13 G/DL
  LEUKOCYTE COUNT: 7.17 x10E3/uL
  LYMPHOCYTE: 92.33%
  MEAN CORPUSCULAR HEMOGLOBIN: 25.2 pg
  MEAN CORPUSCULAR HEMOGLOBIN CONCENTRATION: 38.83 G/DL
  MEAN CORPUSCULAR VOLUME: 64.97 fL
  MONOCYTE: 0.33%
  NEUTROPHIL: 7.33%
  NUCLEATED RED BLOOD CELLS: 0 /100WBC
  PLATELET COUNT: 973 x10E3/uL
  ALANINE AMINOTRANSFERASE: 49.67 u/L
  ALKALINE PHOSPHATASE: 458.33 u/L
  ASPARTATE AMINOTRANSFERASE: 79.67 u/L
  BLOOD UREA NITROGEN: 13.33 mg/dL
  CARBON DIOXIDE: 33.67 mmol/L
  CHLORIDE: 99.5 MEQ/L
  CHOLESTEROL: 74 mg/dL
  CREATINE PHOSPHOKINASE: 223.67 u/L
  CREATININE: 0.14 mg/dL
  GLUCOSE: 142.33 mg/dL
  LACTATE DEHYDROGENASE: 61.33 u/L
  LIPASE: 13.67 u/L
  PHOSPHORUS: 9.77 mg/dL
  POTASSIUM: 6.34 MEQ/L
  SODIUM: 144.3 MEQ/L
  TOTAL BILIRUBIN: 0.13 mg/dL
  TOTAL PROTEIN: 5.33 G/DL
  URIC ACID: 0.6 mg/dL
[3]
  ABSOLUTE BASOPHIL: 0 CELLS/uL
  ABSOLUTE EOSINOPHIL: 0 CELLS/uL
  ABSOLUTE LYMPHOCYTE: 9833.67 CELLS/uL
  ABSOLUTE MONOCYTE: 155 CELLS/uL
  ABSOLUTE SEGMENTED NEUTROPHIL: 711.33 CELLS/uL
  BASOPHIL: 0%
  EOSINOPHIL: 0%
  ERYTHROCYTE COUNT: 5.5 x10E6/uL
  HEMATOCRIT: 35.1%
  HEMOGLOBIN: 13.53 G/DL
  LEUKOCYTE COUNT: 10.7 x10E3/uL
  LYMPHOCYTE: 91.67%
  MEAN CORPUSCULAR HEMOGLOBIN: 24.63 pg
  MEAN CORPUSCULAR HEMOGLOBIN CONCENTRATION: 38.57 G/DL
  MEAN CORPUSCULAR VOLUME: 63.83 fL
  MONOCYTE: 1%
  NEUTROPHIL: 7.33%
  NUCLEATED RED BLOOD CELLS: 0 /100WBC
  PLATELET COUNT: 1129.67 x10E3/uL
  ALANINE AMINOTRANSFERASE: 57 u/L
  ALKALINE PHOSPHATASE: 337 u/L
  ASPARTATE AMINOTRANSFERASE: 75 u/L
  BLOOD UREA NITROGEN: 15 mg/dL
  CARBON DIOXIDE: 28 mmol/L
  CHLORIDE: 99 MEQ/L
  CHOLESTEROL: 72 mg/dL
  CREATINE PHOSPHOKINASE: 195.33 u/L
  CREATININE: 0.18 mg/dL
  GLUCOSE: 180 mg/dL
  LACTATE DEHYDROGENASE: 77.33 u/L
  LIPASE: 10.67 u/L
  PHOSPHORUS: 9.47 mg/dL
  POTASSIUM: 4.99 MEQ/L
  SODIUM: 144.87 MEQ/L
  TOTAL BILIRUBIN: 0.23 mg/dL
  TOTAL PROTEIN: 6.1 G/DL
  URIC ACID: 0.5 mg/dL
